We go through 20 substances from patent publication US20240384268A1, “Oligonucleotides” (Hudson Institute of Medical Research, priority 2021, published 2024).

In the oligonucleotide strings, read from the 5' end, every base follows the letter of its sugar. An asterisk marks phosphorothioate; unmarked linkages are phosphodiester. Other units and linkages are bracketed, terminal groups are in braces. A string of capitals states the bases alone. d = 2'-deoxy (DNA); m = 2'-O-methyl

In the series the target is T1, TLR8 (Homo sapiens, UniProt Q9NR97).
T1 sequence (Q9NR97 27-1041): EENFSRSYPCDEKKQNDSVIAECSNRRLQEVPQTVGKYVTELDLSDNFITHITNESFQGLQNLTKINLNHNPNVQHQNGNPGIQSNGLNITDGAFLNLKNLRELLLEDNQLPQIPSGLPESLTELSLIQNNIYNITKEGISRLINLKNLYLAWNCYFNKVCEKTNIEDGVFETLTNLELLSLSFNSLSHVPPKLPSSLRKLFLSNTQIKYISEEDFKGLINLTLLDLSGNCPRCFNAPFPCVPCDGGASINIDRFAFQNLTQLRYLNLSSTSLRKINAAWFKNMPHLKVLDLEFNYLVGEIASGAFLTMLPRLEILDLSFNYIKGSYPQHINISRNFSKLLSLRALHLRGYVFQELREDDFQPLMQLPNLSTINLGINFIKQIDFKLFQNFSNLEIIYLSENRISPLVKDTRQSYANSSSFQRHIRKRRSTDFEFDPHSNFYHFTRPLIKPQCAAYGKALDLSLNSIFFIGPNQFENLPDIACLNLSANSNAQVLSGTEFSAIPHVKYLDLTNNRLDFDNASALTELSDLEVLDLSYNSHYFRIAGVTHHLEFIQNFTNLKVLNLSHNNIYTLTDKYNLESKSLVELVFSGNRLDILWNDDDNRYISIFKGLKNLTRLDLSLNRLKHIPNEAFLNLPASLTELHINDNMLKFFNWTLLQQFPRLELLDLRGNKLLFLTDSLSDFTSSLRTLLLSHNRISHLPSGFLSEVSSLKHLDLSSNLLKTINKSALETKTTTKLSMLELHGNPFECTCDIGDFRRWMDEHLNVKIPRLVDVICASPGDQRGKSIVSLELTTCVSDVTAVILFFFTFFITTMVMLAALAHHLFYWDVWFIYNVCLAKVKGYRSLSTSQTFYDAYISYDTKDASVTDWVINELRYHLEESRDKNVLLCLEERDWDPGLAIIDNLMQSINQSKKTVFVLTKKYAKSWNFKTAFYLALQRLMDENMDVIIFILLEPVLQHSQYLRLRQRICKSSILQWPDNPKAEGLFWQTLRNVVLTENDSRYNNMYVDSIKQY
Put plainly: HEK-TLR8 NF-κB-luciferase reporter, R848 or Motolimod stimulation (potentiation or inhibition). The format is cell-based. More on the design: expressed in transfected cells; host or cells: 293XLhTLR8 (HEK293). Conditions: HEK-TLR8; 500 nM ASO; fold increase relative to R848 without ASO (Alharbi et al., 2020). On the technique in general: Reporter assays use an easily measured gene product as a stand-in for the process of interest.
For “mG*mU*mU*mC*mA*G*T*C*A*G*A*T*C*G*C*mU*mG*mG*mG*mA (mG*mU*mU*mC*mA*dG*dT*dC*dA*dG*dA*dT*dC*dG*dC*mU*mG*mG*mG*mA) [[LINC-PINT]412 KL]”, the “TLR8-500 nM: averaged NF-κB-Luciferase relative to R848” value was found to be 1.70 fold. For “mU*mA*mA*mA*mA*T*A*A*G*G*G*G*A*A*T*mA*mG*mG*mG*mG (mU*mA*mA*mA*mA*dT*dA*dA*dG*dG*dG*dG*dA*dA*dT*mA*mG*mG*mG*mG) [[CDKN2B-AS1]80]” the value was 1.30 fold. The same measure for “mU*mC*mC*mC*mA*A*C*T*C*T*T*C*T*A*A*mC*mU*mC*mG*mU (mU*mC*mC*mC*mA*dA*dC*dT*dC*dT*dT*dC*dT*dA*dA*mC*mU*mC*mG*mU; antisense) [[LINC-PINT]1284 KL]”: 13.35 fold; for “mU*mC*mC*mC*mA*T*C*C*C*T*T*C*T*G*C*mU*mG*mA*mC*mA (UCCCATCCCTTCTGCUGACA; sugars from the 5' end m5 d10 m5, all phosphorothioate, methylation of C not given here) [[LINC-PINT]101]”: 10.88 fold. Regarding “mU*mC*mU*mC*mC*A*T*G*T*C*C*C*A*G*G*mC*mC*mU*mC*mC (mU*mC*mU*mC*mC*dA*dT*dG*dT*dC*dC*dC*dA*dG*dG*mC*mC*mU*mC*mC; antisense) [[CDKN2B-AS1]2230]”, the “TLR8-500 nM: averaged NF-κB-Luciferase relative to R848” value was 9.17 fold.

“mU*mC*mU*mC*mU*C*T*G*G*T*C*C*C*A*T*mC*mC*mC*mU*mU (mU*mC*mU*mC*mU*dC*dT*dG*dG*dT*dC*dC*dC*dA*dT*mC*mC*mC*mU*mU; antisense) [[LINC-PINT]110]”: the “TLR8-500 nM: averaged NF-κB-Luciferase relative to R848” value amounted to 11.27 fold. Take “mU*mC*mU*mC*mU*G*G*T*C*C*C*A*T*C*C*mC*mU*mU*mC*mU (UCUCUGGTCCCATCCCUUCU; antisense; sugars from the 5' end m5 d10 m5, all phosphorothioate, methylation of C not given here) [[LINC-PINT]108]”: the “TLR8-500 nM: averaged NF-κB-Luciferase relative to R848” value turned out to be 11.42 fold. For “mU*mC*mU*mG*mG*T*C*C*C*A*T*C*C*C*T*mU*mC*mU*mG*mC (UCUGGTCCCATCCCTUCUGC; antisense; sugars from the 5' end m5 d10 m5, all phosphorothioate, methylation of C not given here) [[LINC-PINT]106]”, the “TLR8-500 nM: averaged NF-κB-Luciferase relative to R848” value is 5.25 fold. “mU*mG*mA*mC*mA*A*A*A*C*A*A*T*A*A*T*mA*mA*mC*mA*mG (mU*mG*mA*mC*mA*dA*dA*dA*dC*dA*dA*dT*dA*dA*dT*mA*mA*mC*mA*mG) [[LINC-PINT]384]”: the “TLR8-500 nM: averaged NF-κB-Luciferase relative to R848” value is 2.57 fold.

Regarding “mU*mG*mA*mC*mA*T*T*T*C*G*T*G*G*C*T*mC*mC*mU*mA*mC (mU*mG*mA*mC*mA*dT*dT*dT*dC*dG*dT*dG*dG*dC*dT*mC*mC*mU*mA*mC; antisense) [[LINC-PINT]523 KL]”, the “TLR8-500 nM: averaged NF-κB-Luciferase relative to R848” value is 4.34 fold. With “mU*mG*mA*mU*mG*A*T*G*C*T*T*G*C*A*G*mG*mA*mG*mG*mC (mU*mG*mA*mU*mG*dA*dT*dG*dC*dT*dT*dG*dC*dA*dG*mG*mA*mG*mG*mC) [[LINC-PINT|283.1]”, the “TLR8-500 nM: averaged NF-κB-Luciferase relative to R848” value came to 1.57 fold. The same measure for “mU*mG*mG*mC*mG*T*A*G*T*T*T*C*T*C*T*mU*mC*mC*mU*mC (mU*mG*mG*mC*mG*dT*dA*dG*dT*dT*dT*dC*dT*dC*dT*mU*mC*mC*mU*mC; antisense) [[LINC-PINT]937.1]”: 4.25 fold; for “mU*mG*mU*mG*mA*A*A*A*G*A*T*T*A*T*C*mU*mU*mC*mU*mU (UGUGAAAAGATTATCUUCUU; sugars from the 5' end m5 d10 m5, all phosphorothioate, methylation of C not given here) [[CDKN2B-AS1]2137]”: 4.97 fold. For “mU*mG*mU*mU*mU*C*C*C*C*G*G*A*G*A*G*mC*mA*mA*mU*mG (UGUUUCCCCGGAGAGCAAUG; antisense; sugars from the 5' end m5 d10 m5, all phosphorothioate, methylation of C not given here) [[LINC-PINT]501 KL]” the value was 2.04 fold; for “mU*mU*mA*mA*mA*T*A*A*T*C*T*A*G*T*T*mU*mG*mA*mA*mG (UUAAATAATCTAGTTUGAAG; sugars from the 5' end m5 d10 m5, all phosphorothioate, methylation of C not given here) [[CDKN2B-AS1]132]”, 6.43 fold.

On to “mU*mU*mA*mG*mC*T*C*C*T*T*G*C*C*T*C*mG*mU*mU*mC*mC (mU*mU*mA*mG*mC*dT*dC*dC*dT*dT*dG*dC*dC*dT*dC*mG*mU*mU*mC*mC; antisense) [[LINC-PINT] 1222]”, for which the “TLR8-500 nM: averaged NF-κB-Luciferase relative to R848” value worked out at 8.41 fold. For “mU*mU*mC*mU*mC*T*C*T*G*G*T*C*C*C*A*mU*mC*mC*mC*mU (mU*mU*mC*mU*mC*dT*dC*dT*dG*dG*dT*dC*dC*dC*dA*mU*mC*mC*mC*mU; antisense) [[LINC-PINT]111]” the value was 9.51 fold; for “mU*mU*mG*mG*mC*C*T*G*T*G*G*A*T*G*C*mU*mU*mU*mG*mU (mU*mU*mG*mG*mC*dC*dT*dG*dT*dG*dG*dA*dT*dG*dC*mU*mU*mU*mG*mU) [[LINC-PINT]2673.1]”, 0.94 fold. For “mU*mU*mG*mU*mG*A*A*A*A*G*A*T*T*A*T*mC*mU*mU*mC*mU (mU*mU*mG*mU*mG*dA*dA*dA*dA*dG*dA*dT*dT*dA*dT*mC*mU*mU*mC*mU) [[CDKN2B-AS1]2138]” the value was 1.94 fold; for “mU*mU*mU*mG*mA*A*A*T*T*C*A*G*A*A*G*mA*mU*mU*mU*mG (mU*mU*mU*mG*mA*dA*dA*dT*dT*dC*dA*dG*dA*dA*dG*mA*mU*mU*mU*mG) [[LINC PINT|2690]”, 4.93 fold.
